Usually Kd stands for the constant that tells how readily two partners part at equilibrium.

Kd data for two compounds are collected here from article PMC4680847 (Structure (London, England : 1993), 2015).

Residue numbers refer to the chain shown, from its start. Read-outs that look alike come from different tables or passages of the source.

Type in all cases: binding
Test [1] has as its target T1, RNase A (Bos taurus, UniProt P61823).
T1 sequence (P61823 27-150): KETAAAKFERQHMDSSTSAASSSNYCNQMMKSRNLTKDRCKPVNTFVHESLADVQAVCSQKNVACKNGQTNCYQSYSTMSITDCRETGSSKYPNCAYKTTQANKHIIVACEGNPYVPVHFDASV
Description: ITC. A general note: ITC needs no label: the signal is the heat of the interaction.

For test [2], the target named is T2, RNase A (Bos taurus, UniProt P61823, A135G).
T2 sequence (P61823 27-150 A135G): T1 sequence (P61823 27-150) with A109G
Briefly: crystal structure.

Test [3] addresses T2, RNase A. Description: crystal structure. The source holds these as a separate data set.

As for `Nc1ncnc2c1ncn2[C@@H]1O[C@H](COP(=O)(O)O)[C@@H](O)[C@H]1O` [5′-AMP], the Kd was found to be 105 ± 1 µM in test [1] and 440 ± 26 µM in test [2].
Turning to `O=c1ccn([C@@H]2O[C@H](CO)[C@@H](OP(=O)(O)O)[C@H]2O)c(=O)[nH]1` [3′-UMP], the values for the Kd in test [3] and in test [1] were 50 ± 8 µM and 67 ± 6 µM, respectively.
